Measurements as given in US12077503B2, “Substituted cyclic amides and their use as herbicides” (FMC CORPORATION, priority 2015, dated 2024).

Tests used:
Type in all cases: in vivo
Kochia (Kochia scoparia) [1] = experiment: Test A preemergence; conditions: Bassia scoparia, pre-emergence, 240 h; for pest or weed control at 125 g/ha: 125 g ai/ha, Preemergence, visual injury rating after approximately 10 d, read-out: Kochia plant response rating (0 to 100 scale, 0 is no effect, 100 is complete control); for pest or weed control at 500 g/ha: 500 g ai/ha, preemergence, visual injury rating about 10 d after treatment, 0 to 100 scale (0 no effect, 100 complete control), read-out: Kochia plant response rating
How it was run: (§1)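 Ratings of 0 (no effect) to 100 (complete control) come from visual comparison with untreated controls roughly 10 d after treatment. Test chemicals, formulated in a non-phytotoxic solvent mixture with surfactant, were applied either as a preemergence directed soil spray on seeded soil or postemergence to one- to two-leaf plants 2 to 10 cm tall.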

[2] = test system: barnyardgrass (Echinochloa crus-galli); experiment: Test A preemergence; conditions: Echinochloa crus-galli, pre-emergence, 240 h; for pest or weed control at 125 g/ha: 125 g ai/ha, Preemergence, visual injury rating after approximately 10 d, read-out: Barnyardgrass plant response rating (0 to 100 scale, 0 is no effect, 100 is complete control); for pest or weed control at 500 g/ha: 500 g ai/ha, preemergence, visual injury rating about 10 d after treatment, 0 to 100 scale (0 no effect, 100 complete control), read-out: Barnyardgrass plant response rating
How it was run: as §1

[3] = test system: giant foxtail (Setaria faberii); experiment: Test A preemergence; conditions: Setaria faberi, pre-emergence, 240 h; for pest or weed control at 125 g/ha: 125 g ai/ha, Preemergence, visual injury rating after approximately 10 d, read-out: Foxtail, Giant plant response rating (0 to 100 scale, 0 is no effect, 100 is complete control); for pest or weed control at 500 g/ha: 500 g ai/ha, preemergence, visual injury rating about 10 d after treatment, 0 to 100 scale (0 no effect, 100 complete control), read-out: Foxtail, Giant plant response rating
How it was run: as §1

[4] = test system: pigweed (Amaranthus retroflexus); experiment: Test A preemergence; conditions: Amaranthus retroflexus, pre-emergence, 240 h; for pest or weed control at 125 g/ha: 125 g ai/ha, Preemergence, visual injury rating after approximately 10 d, read-out: Pigweed plant response rating (0 to 100 scale, 0 is no effect, 100 is complete control); for pest or weed control at 500 g/ha: 500 g ai/ha, preemergence, visual injury rating about 10 d after treatment, 0 to 100 scale (0 no effect, 100 complete control), read-out: Pigweed plant response rating
[5] = test system: ragweed (common ragweed, Ambrosia elatior); experiment: Test A preemergence; conditions: Ambrosia artemisiifolia, pre-emergence, 240 h; for pest or weed control at 125 g/ha: 125 g ai/ha, Preemergence, visual injury rating after approximately 10 d, read-out: Ragweed plant response rating (0 to 100 scale, 0 is no effect, 100 is complete control); for pest or weed control at 500 g/ha: 500 g ai/ha, preemergence, visual injury rating about 10 d after treatment, 0 to 100 scale (0 no effect, 100 complete control), read-out: Ragweed plant response rating
How it was run: as §1

[6] = test system: ryegrass, Italian (Italian ryegrass, Lolium multiflorum); experiment: Test A preemergence; conditions: Lolium multiflorum, pre-emergence, 240 h; for pest or weed control at 125 g/ha: 125 g ai/ha, Preemergence, visual injury rating after approximately 10 d, read-out: Ryegrass, Italian plant response rating (0 to 100 scale, 0 is no effect, 100 is complete control); for pest or weed control at 500 g/ha: 500 g ai/ha, preemergence, visual injury rating about 10 d after treatment, 0 to 100 scale (0 no effect, 100 complete control), read-out: Ryegrass, Italian plant response rating
How it was run: as §1

[7] = test system: Galium (catchweed bedstraw, Galium aparine); experiment: Test A postemergence; conditions: Galium, post-emergence, 240 h, 125 g ai/ha, Postemergence; visual injury after approximately 10 d; 0 to 100 scale where 0 is no effect and 100 is complete control; read-out: Plant response rating, Galium
How it was run: as §1

Kochia (Kochia scoparia) [8] = experiment: Test A postemergence; conditions: Bassia scoparia, post-emergence, 240 h, 125 g ai/ha, Postemergence; visual injury after approximately 10 d; 0 to 100 scale where 0 is no effect and 100 is complete control; read-out: Plant response rating, Kochia
How it was run: as §1

[9] = test system: blackgrass (Alopecurus myosuroides); experiment: Test A postemergence; conditions: Alopecurus myosuroides, post-emergence, 240 h, 125 g ai/ha, Postemergence; visual injury after approximately 10 d; 0 to 100 scale where 0 is no effect and 100 is complete control; read-out: Plant response rating, Blackgrass
How it was run: as §1

corn (Zea mays) = experiment: Test A postemergence; conditions: Zea mays, post-emergence, 240 h, 125 g ai/ha, Postemergence; visual injury after approximately 10 d; 0 to 100 scale where 0 is no effect and 100 is complete control
How it was run: as §1

[10] = test system: giant foxtail (Setaria faberii); experiment: Test A postemergence; conditions: Setaria faberi, post-emergence, 240 h, 125 g ai/ha, Postemergence; visual injury after approximately 10 d; 0 to 100 scale where 0 is no effect and 100 is complete control; read-out: Plant response rating, Foxtail, Giant
How it was run: as §1

[11] = test system: pigweed (Amaranthus retroflexus); experiment: Test A postemergence; conditions: Amaranthus retroflexus, post-emergence, 240 h, 125 g ai/ha, Postemergence; visual injury after approximately 10 d; 0 to 100 scale where 0 is no effect and 100 is complete control; read-out: Plant response rating, Pigweed
How it was run: as §1

[12] = test system: ragweed (common ragweed, Ambrosia elatior); experiment: Test A postemergence; conditions: Ambrosia artemisiifolia, post-emergence, 240 h, 125 g ai/ha, Postemergence; visual injury after approximately 10 d; 0 to 100 scale where 0 is no effect and 100 is complete control; read-out: Plant response rating, Ragweed
How it was run: as §1

[13] = test system: ryegrass, Italian (Italian ryegrass, Lolium multiflorum); experiment: Test A postemergence; conditions: Lolium multiflorum, post-emergence, 240 h, 125 g ai/ha, Postemergence; visual injury after approximately 10 d; 0 to 100 scale where 0 is no effect and 100 is complete control; read-out: Plant response rating, Ryegrass, Italian
How it was run: as §1

[14] = test system: wheat (Triticum aestivum); experiment: Test A postemergence; conditions: Triticum aestivum, post-emergence, 240 h, 125 g ai/ha, Postemergence; visual injury after approximately 10 d; 0 to 100 scale where 0 is no effect and 100 is complete control; read-out: Plant response rating, Wheat
How it was run: as §1

[15] = test system: barnyardgrass (Echinochloa crus-galli); experiment: Test B flooded paddy test; conditions: Echinochloa crus-galli, Flood, 250 g ai/ha; scale of 0 to 100 where 0 is no effect and 100 is complete control; read-out: Barnyardgrass plant response rating
How it was run: (§2)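 Compound goes directly into floodwater once pots are flooded 3 cm above soil, targeting plants at two leaves; the water depth is then held for the test duration. Plants sit 13–15 d in a greenhouse and are rated visually, 100 denoting complete control.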

[16] = test system: ducksalad (Heteranthera limosa); experiment: Test B flooded paddy test; conditions: Heteranthera limosa, Flood, 250 g ai/ha; scale of 0 to 100 where 0 is no effect and 100 is complete control; read-out: Ducksalad plant response rating
How it was run: as §2

rice (Oryra sativa) = experiment: Test B flooded paddy test; conditions: Oryza sativa, Flood, 250 g ai/ha; scale of 0 to 100 where 0 is no effect and 100 is complete control; read-out: Rice plant response rating
How it was run: as §2

[17] = test system: sedge, umbrella (small-flower umbrella sedge, Cyperus difformis); experiment: Test B flooded paddy test; conditions: Cyperus difformis, Flood, 250 g ai/ha; scale of 0 to 100 where 0 is no effect and 100 is complete control; read-out: Sedge, Umbrella plant response rating
How it was run: as §2

SMILES	pest or weed control at 125 g/ha (Kochia (Kochia scoparia) [1]) [%]	pest or weed control at 500 g/ha (Kochia (Kochia scoparia) [1]) [%]	pest or weed control at 125 g/ha [2] [%]	pest or weed control at 500 g/ha [2] [%]	pest or weed control at 125 g/ha [3] [%]	pest or weed control at 500 g/ha [3] [%]	pest or weed control at 125 g/ha [4] [%]	pest or weed control at 500 g/ha [4] [%]	pest or weed control at 500 g/ha [5] [%]	pest or weed control at 125 g/ha [6] [%]	pest or weed control at 500 g/ha [6] [%]	pest or weed control at 125 g/ha [7] [%]	pest or weed control at 125 g/ha (Kochia (Kochia scoparia) [8]) [%]	pest or weed control at 125 g/ha [9] [%]	Corn plant response rating (crop injury, 0 = no effect, 100 = complete kill) at 125 g/ha (corn (Zea mays)) [%]	pest or weed control at 125 g/ha [10] [%]	pest or weed control at 125 g/ha [11] [%]	pest or weed control at 125 g/ha [12] [%]	pest or weed control at 125 g/ha [13] [%]	plant injury at 125 g/ha [14] [%]	also measured
CN1C[C@H](c2cc(F)cc(Cl)c2)[C@@H](C(=O)Nc2cccc(F)c2F)C1=O [Compound 974]	90	100	90	100	90	90	20	60	90	70	90	50	70	70	70	90	40	20	70	70	pest or weed control at 125 g/ha [5]: 90%; pest or weed control at 250 g/ha [15]: 60%; pest or weed control at 250 g/ha [16]: 100%; pest or weed control at 250 g/ha (rice (Oryra sativa)): 15%; pest or weed control at 250 g/ha [17]: 0%
CN1C[C@H](c2cc(F)cc(Cl)c2)[C@@H](C(=O)Nc2ccccc2F)C1=O [Compound 976]	70	90	90	100	90	90	0	50	90	50	80	0	30	40	60	90	0	0	20	40	pest or weed control at 250 g/ha [15]: 65%; pest or weed control at 250 g/ha [16]: 95%; pest or weed control at 250 g/ha (rice (Oryra sativa)): 20%; pest or weed control at 250 g/ha [17]: 0%
COc1cc(OC)cc([C@H]2CN(C)C(=O)[C@@H]2C(=O)Nc2ccccc2F)c1 [Compound 980]	0	90	90	100	90	100	0	0	20	20	30	0	0	0	0	90	0	0	0	0	pest or weed control at 125 g/ha [5]: 0%; pest or weed control at 250 g/ha [15]: 60%; pest or weed control at 250 g/ha [16]: 0%; pest or weed control at 250 g/ha (rice (Oryra sativa)): 30%; pest or weed control at 250 g/ha [17]: 0%
CSc1ccccc1NC(=O)[C@H]1C(=O)N(C)C[C@@H]1c1ccc(C)c(F)c1 [Compound 983]	90	90	90	100	100	100	0	40	100	30	60	30	50	30	20	90	0	0	20	30	pest or weed control at 125 g/ha [5]: 70%; pest or weed control at 250 g/ha [15]: 30%; pest or weed control at 250 g/ha [16]: 100%; pest or weed control at 250 g/ha (rice (Oryra sativa)): 0%; pest or weed control at 250 g/ha [17]: 0%
